This note sets out measurements from ChEMBL document CHEMBL1125988, “Restricted rotation analogs of decarboxylated S-adenosylmethionine as inhibitors of polyamine biosynthesis” (Bioorg Med Chem Lett, 1991).

Data set [1] deals with L1210. Put plainly: Cellular polyamine (spermine) content was determined in L1210 cells. The format is functional, Mus musculus.
The nature of data set [2]: Lethal dose of compound towards active site probes for spermidine and spermine synthase in L1210 cultured cell assay,. The format is toxicity, cell-based. The settings on record: mouse, L1210 cells; read-out: LD50 (the source's name).
The subject of data set [3] is L1210. As to the kind of experiment: Compound was evaluated for % of growth control in cultured L1210 cells. The format is functional, Mus musculus.
In data set [4] the test system is L1210. As to the kind of experiment: Cellular polyamine (putrescine) content was determined in L1210 cells. The format is functional, Mus musculus.
Data set [5] has as its system L1210. As to the kind of experiment: Ornithine decarboxylase activity was measured by the enzymatic decarboxylation of L-[14C-COOH]-ornithine as nmol CO2 produced per hour per mg of protein in L1210 cells. The format is functional, Mus musculus.
Data set [6] deals with L1210. As to the kind of experiment: Cellular polyamine (SPD) content was determined in L1210 cells. The format is functional, Mus musculus.
Data set [7] deals with L1210. As to the kind of experiment: Tested for inhibitory activity on cultured L1210 cells. The format is functional, cell-based. The note with it: Mus musculus.
Data set [8] concerns L1210. Put plainly: S-adenosyl-methionine decarboxylase activity was measured by the enzymatic decarboxylation of L-[14C-COOH]-methionine as nmol CO2 produced per hour per mg of protein in L1210 cells. The format is functional, Mus musculus.

As for `Nc1ncnc2c1ncn2[C@@H]1O[C@H](CSC2CCNC2)[C@@H](O)[C@H]1O` (stereo partly specified), the figures for the Cellular content with L1210 [1], in the data set with L1210 [4] and in the data set with L1210 [6] were 1000 pM (10e6*cells)-1, 37 pM (10e6*cells)-1 and 410 pM (10e6*cells)-1, respectively. Moreover, the CC50 in data set [2] amounted to 100 µM. In the data set with L1210 [3], the Growth stood at 46%. Moreover, the Activity is 2.98 (nM of CO2) hr-1 mg-1 in the data set on L1210 [5] and 367 (nM of CO2) hr-1 mg-1 in the data set on L1210 [8]. This compound showed an IC50 with L1210 [7] of 100 µM.
As to `Br.C[S+](C[C@H]1O[C@@H](n2cnc3c(N)ncnc32)[C@H](O)[C@@H]1O)C1CCNC1.[Br-]` (stereo partly specified), the figures for the Cellular content with L1210 [1], in the data set with L1210 [4] and in the data set on L1210 [6] were 1290 pM (10e6*cells)-1, 170 pM (10e6*cells)-1 and 208 pM (10e6*cells)-1, respectively. Besides, the CC50 in data set [2] is 1000 µM. This compound also registered a Growth with L1210 [3] of 58%. Besides, the Activity is on record as 6.16 (nM of CO2) hr-1 mg-1 in the data set on L1210 [5] and 500 (nM of CO2) hr-1 mg-1 with L1210 [8]. This compound showed an IC50 in the data set with L1210 [7] of 1000 µM.

As usually defined, the IC50 is the concentration that inhibits the measured activity by half. Lower therefore signals inhibition by little substance.
